Laboratory results published in paper PMC4469081 (Bioorganic & medicinal chemistry letters, 2015).
Entries after “also recorded” stand apart in the source; their conditions may differ.

How the values were obtained:
Format in all cases: cell-based
ldlA[mSR-BI] cells = assay: Cytotoxicity in the assay cell line; settings: 24 h incubation stated for 1a
[1] = target: T1, mouse SR-BI (ldlA[mSR-BI]) (Mus musculus, UniProt Q61009); assay: DiI-HDL uptake assay
T1 sequence (Q61009 1-509): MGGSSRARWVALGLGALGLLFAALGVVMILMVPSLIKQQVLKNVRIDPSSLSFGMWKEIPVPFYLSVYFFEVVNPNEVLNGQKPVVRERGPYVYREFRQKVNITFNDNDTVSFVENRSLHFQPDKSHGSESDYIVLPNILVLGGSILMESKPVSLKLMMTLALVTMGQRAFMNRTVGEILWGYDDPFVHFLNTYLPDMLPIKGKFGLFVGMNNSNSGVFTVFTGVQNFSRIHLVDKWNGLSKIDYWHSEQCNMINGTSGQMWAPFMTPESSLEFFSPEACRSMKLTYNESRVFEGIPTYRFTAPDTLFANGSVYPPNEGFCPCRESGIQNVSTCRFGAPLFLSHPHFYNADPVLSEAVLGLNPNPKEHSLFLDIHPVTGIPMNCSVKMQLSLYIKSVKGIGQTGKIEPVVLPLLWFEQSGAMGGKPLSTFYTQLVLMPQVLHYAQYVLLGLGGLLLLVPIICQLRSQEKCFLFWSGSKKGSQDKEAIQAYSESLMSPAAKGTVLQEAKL

[2] = tested on: receptor-mediated endocytosis of transferrin by ldlA[mSR-BI] cells; assay: Endocytosis of Alexa-594-labeled transferrin; settings: concentrations up to 35 μM

For `COc1ccc(-c2nnn(CC(=O)N(C3CCCCC3)C(C)C(=O)NC3CCCC3)n2)cc1OC` (centres unmarked) [Compound 1a], the Cytotoxicity (ldlA[mSR-BI] cells) was “no measurable cytotoxicity”.

In the case of `COc1ccc(-c2nnn(CC(=O)N(CC3CCCCC3)C(C)C(=O)NC3CCCC3)n2)cc1OC` (centres unmarked) [Compound 4d], the “Fold decrease in activity relative to 1a” value ([1]; carbon atom inserted between cyclohexyl group and backbone nitrogen) is reported as “greater than 20 fold”.

`C[C@H](C(=O)NC1CCCC1)N(C(=O)Cn1nnc(-c2ccc3c(c2)OCO3)n1)C1CCCCC1` [Compound 5e] was tested, and the “Fold more potent than its enantiomer 5d” value ([1]; (R)-isomer vs (S)-isomer) was 100 fold, the Cytotoxicity (ldlA[mSR-BI] cells; listed as ML279) was “non-toxic; also recorded: not cytotoxic” and the “Inhibition of transferrin endocytosis” value [2] was “no inhibition”.
